Tests used:
AI-2 synthesis [1] = settings: 100 μg/mL; cited from earlier work
E. coli = E. coli cell growth (toxicity); type: cell-based; settings: 60 μg/mL
E. coli biofilm = E. coli biofilm formation on stainless steel surface; type: cell-based; settings: 60 μg/mL, non-toxic concentration
AI-2 synthesis [2] = test: AI-2 synthesis in E. coli, bioluminescence assay with reporter strain Vibrio harveyi BB 170; type: cell-based; settings: 60 μg/mL
Protocol: Biofilm formation relies on bacteria's secretion and sensing (quorum sensing) of signal molecules (called auto-inducer). […] Furanone #8 and 9 (60 μg/mL) inhibited AI-2 synthesis in E. coli 12.5- and 3.5-fold. […] 96: p. 1639-1644).

Row | Compound | inhibition of AI-2 synthesis (AI-2 synthesis [1]) [fold] | E. coli cell growth (E. coli) | repression of E. coli biofilm formation, % of the surface coverage (E. coli biofilm) [%] | inhibition of AI-2 synthesis in E. coli (AI-2 synthesis [2]) [fold]
1 | CCCCC1=C(Br)/C(=C\Br)OC1=O [furanone #1] | 2 |  |  | 
2 | CC1=CC(=C(Br)Br)OC1=O [furanone #9] |  | cell growth not affected | 86 | 3.5
3 | O=C1O/C(=C/Br)C(Br)=C1CBr [furanone #10] |  | cell growth not affected | 91 | 

— US9150788B2, “Non-amphiphile-based water-in-water emulsion and uses thereof” (Syracuse University, priority 2007, dated 2015)
